Experimental data from patent US12037324B2, “Biarylmethyl heterocycles” (Université de Montréal, priority 2016, dated 2024).
Read-outs that look alike come from different tables or passages of the source.

What was measured:
[1] = biological target: T1, AGTR1 (Homo sapiens, UniProt P30556); test: DiscoveRx β-arrestin2 recruitment assay (enzyme complementation, Pathunter CHO-K1 AGTR1 β-arrestin cell line); format: cell-based; conditions: DiscoveRx β-arrestin2 recruitment; for DiscoveRx β-arrestin2 Ymax (%): maximal response
T1 construct: host or cells: Pathunter CHO-K1 AGTR1 β-arrestin cell line (CHO-K1)
T1 sequence (P30556 1-359): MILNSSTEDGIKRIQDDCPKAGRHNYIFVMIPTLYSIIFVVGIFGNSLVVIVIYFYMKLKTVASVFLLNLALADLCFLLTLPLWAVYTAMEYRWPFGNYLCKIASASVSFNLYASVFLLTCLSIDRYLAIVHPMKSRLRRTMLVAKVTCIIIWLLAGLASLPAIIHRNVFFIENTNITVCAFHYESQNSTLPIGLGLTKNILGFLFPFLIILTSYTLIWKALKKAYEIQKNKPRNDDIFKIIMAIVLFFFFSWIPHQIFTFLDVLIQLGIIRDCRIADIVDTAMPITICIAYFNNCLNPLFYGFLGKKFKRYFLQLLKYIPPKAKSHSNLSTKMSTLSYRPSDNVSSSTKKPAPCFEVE
Outline: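 Chemiluminescent enzyme-complementation read-out of β-arrestin2 recruitment to AGTR1 in engineered CHO-K1 cells after 90 min compound exposure at 37° C. Values are 4-parameter logistic EC50s in agonist mode, IC50s in antagonist mode, with efficacy relative to the maximal All response.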

[2] = biological target: T1, AGTR1; test: DiscoveRx IP1 accumulation assay (HTRF), agonist mode, Pathunter CHO-K1 AGTR1 β-arrestin cell line; format: cell-based; conditions: for EC50: read-out: IP-1 EC50
Outline: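 Agonist mode in CHO-K1 AGTR1 β-arrestin cells plated 14-16 h before; compounds at varying concentrations for 90 min at 37° C, IP1 accumulation read by HTRF (D2-conjugate and anti-IP1 cryptate, 20 min room temperature). EC50 from 4-parameter logistic fit; activity given as percentage of maximal AII effect.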

[3] = biological target: T2, hAT1R (Homo sapiens, UniProt P30556); test: cell-based
T2 sequence (P30556 1-359): T1 sequence (P30556 1-359)

[4] = biological target: T2, hAT1R; test: cell-based; conditions: agonist mode; for EC50: read-out: BRET P63 EC50
[5] = section of the 42nd table ending at r951, example numbering restarts after the DiscoveRx section, read-out: β-arrestin2 EC50
[6] = Low AT1R Expression, read-out: BRET β-Arrestin2 Low AT1R Expression EC50

Structure (SMILES)	EC50 [1]	DiscoveRx β-arrestin2 Ymax (%) [1]	IP-1 Ymax (%) [2]	EC50 [2]	EC50 [3, 5]	BRET P63 Ymax [4]	EC50 [4]	BRET β-Arrestin2 Low AT1R Expression Ymax (%) ([3]; Low AT1R Expression)	EC50 [3, 6]
CCCC1=NC2(CCOC2)C(=O)N1Cc1ccc(-c2cc(-c3cccc(C)c3)ccc2-c2nnn[nH]2)cc1 (single isomer, unassigned) [Example 159]	51.4 nM	44.0%	11.3%	78.1 nM	40.3 nM	11.5%	79.3 nM	–	–
CCCC1=NC2(CCOC2)C(=O)N1Cc1ccc(-c2cc(-c3cccc(C)c3)ccc2-c2nnn[nH]2)cc1 (single isomer, unassigned) [Example 163]	69.2 nM	34.6%	7.8%	181 nM	91.8 nM	–	> 10000 nM	–	–
CCCCn1cc(-c2ccc(-c3nnn[nH]3)c(-c3ccc(Cn4c(CC)nc5c(C)cc(C)nc54)cc3)c2)nn1 [Example 241]	41.5 nM	44.3%	12.8%	150 nM	50.2 nM	17.5%	40.5 nM	–	–
CCCCC1=NC2(CCOCC2)C(=O)N1Cc1ccc(-c2cc(-c3cccc(C)c3)ccc2-c2nn[nH]n2)cc1 [Example 155, 2-butyl-3-((3″-methyl-6′-(2H-tetrazol-5-yl)-[1,1′:3′,1″-terphenyl]-4-yl)methyl)-8-oxa-1,3-diazaspiro[4.5]dec-1-en-4-one]	40.8 nM	32.0%	–	> 100000 nM	42.7 nM	–	> 100000 nM	–	–
CCc1nc2c(C)cc(C)nc2n1Cc1ccc(-c2cc(-n3cc(C)cn3)ccc2-c2nnn[nH]2)cc1 [Example 217, 2-ethyl-5,7-dimethyl-3-((5′-(4-methyl-1H-pyrazol-1-yl)-2′-(1H-tetrazol-5-yl)-[1,1′-biphenyl]-4-yl)methyl)-3H-imidazo[4,5-b]pyridine]	4.6 nM	70.3%	21.8%	22.5 nM	3 nM	32.1%	2.7 nM	–	–
CCc1nc2c(C)cc(C)nc2n1Cc1cnc(-c2cc(-c3cccc(C)c3)ccc2-c2nnn[nH]2)nc1 [Example 197, 2-ethyl-5,7-dimethyl-3-((2-(3′-methyl-4-(1H-tetrazol-5-yl)biphenyl-3-yl)pyrimidin-5-yl)methyl)-3H-imidazo[4,5-b]pyridine]	282 nM	20.2%	5.7%	493 nM	> 10000 nM	–	> 100000 nM	–	–
CCc1nc2c(C)cc(C)nc2n1Cc1ccc(-c2cc(-c3ccc(F)cn3)ccc2-c2nn[nH]n2)cc1 [Example 65]	27.3 nM	31.0%	12.2%	62.7 nM	–	13.1%	17.2 nM	54.5%	23.6 nM
CCCCC1=NC2(CCOCC2)C(=O)N1Cc1ccc(-c2cc(-c3ccccc3)ccc2-c2nnn[nH]2)cc1 [Example 156]	85.1 nM	19.9%	7.2%	189 nM	250 nM	–	> 100000 nM	–	–
CCCCC1=NC2(CCOC2)C(=O)N1Cc1ccc(-c2cc(-c3ccccc3O)ccc2-c2nnn[nH]2)cc1 (single isomer, unassigned) [Example 151]	76.4 nM	44.3%	14.0%	607 nM	–	11.0%	174 nM	42.5%	419 nM
CCCCC1=NC2(CCOCC2)C(=O)N1Cc1ccc(-c2cc(-c3ccccc3O)ccc2-c2nnn[nH]2)cc1 [Example 157]	30.3 nM	44.7%	11.4%	60.1 nM	61.1 nM	16.5%	37.6 nM	–	–
CCCCC1=NC2(CCOC2)C(=O)N1Cc1ccc(-c2cc(-c3cccc(C)c3)ccc2-c2nnn[nH]2)cc1 (single isomer, unassigned) [Example 152]	11.6 nM	28.6%	7.0%	30.7 nM	21.8 nM	–	> 100000 nM	–	–
CCC1=NC2(CCOC2)C(=O)N1Cc1ccc(-c2cc(-c3cccc(C)c3)ccc2-c2nnn[nH]2)cc1 (single isomer, unassigned) [Example 169]	111 nM	50.1%	14.5%	484 nM	271 nM	13.3%	127 nM	–	–
CCc1nc2c(C)cc(C)nc2n1Cc1cnc(-c2cc(-c3ccccc3)ccc2-c2nnn[nH]2)cn1 [Example 187, 3-((5-(4-(1H-tetrazol-5-yl)-[1,1′-biphenyl]-3-yl)pyrazin-2-yl)methyl)-2-ethyl-5,7-dimethyl-3H-imidazo[4,5-b]pyridine]	44.4 nM	34.0%	16.1%	104 nM	181 nM	8.4%	168 nM	–	–
CCCC1=NC2(CCCC2)C(=O)N1Cc1ccc(-c2cc(-c3cc(OC)ccn3)ccc2-c2nn[nH]n2)cc1 [Example 115, 3-((5′-(4-methoxypyridin-2-yl)-2′-(2H-tetrazol-5-yl)-[1,1′-biphenyl]-4-yl)methyl)-2-propyl-1,3-diazaspiro[4.4]non-1-en-4-one]	13.3 nM	30.8%	13.6%	39.3 nM	–	22.1%	11.9 nM	53.3%	16.8 nM
CC1=NC2(CCOCC2)C(=O)N1Cc1ccc(-c2cc(-c3ccccc3)ccc2-c2nn[nH]n2)cc1 [Example 172, 3-((6′-(2H-tetrazol-5-yl)-[1,1′:3′,1″-terphenyl]-4-yl)methyl)-2-methyl-8-oxa-1,3-diazaspiro[4.5]dec-1-en-4-one]	196 nM	27.1%	9.4%	782 nM	> 10000 nM	–	> 10000 nM	–	–
COc1ccnc(-c2ccc(-c3nn[nH]n3)c(-c3ccc(CN4C(=O)C5(CCCC5)N=C4C4CC4)cc3)c2)c1 [Example 119, 2-cyclopropyl-3-((5′-(4-methoxypyridin-2-yl)-2′-(2H-tetrazol-5-yl)-[1,1′-biphenyl]-4-yl)methyl)-1,3-diazaspiro[4.4]non-1-en-4-one]	47.5 nM	51.4%	18.4%	108 nM	–	21.8%	40.5 nM	63.9%	53.9 nM
CCCC1=NC2(CCOC2)C(=O)N1Cc1ccc(-c2cc(-c3ccccc3O)ccc2-c2nnn[nH]2)cc1 (single isomer, unassigned) [Example 164]	76 nM	58.7%	17.3%	231 nM	160 nM	15.6%	106 nM	–	–
